In US20200318189A1 (CHANG GUNG MEMORIAL HOSPITAL, LINKOU, priority 2017, published 2020):

Experiments:
[1] = test system: HLA-A*0207 and HLA-B*1502 alleles

## Nc1nnc(-c2cccc(Cl)c2Cl)c(N)n1 [lamotrigine, Lamotrigine]
[1]
  Sensitivity (%): 61.54%
  Specificity (%): 73.51%
HLA-B*1502 allele
  Sensitivity (%): 26.92%
  Specificity (%): 90.33%
HLA-A*0207 allele
  Sensitivity (%): 42.31%
  Specificity (%): 83.18%
